Here are results for 1 compound from patent US20030228343A1, “Method for controlling a population of social insects using 1-arylpyrazoles or 1-heteroarylpyrazoles” (priority 1995, published 2003).

One test concerns Lasius niger. Briefly: Honey bait placed near an active anthill, population destruction. The format is in vivo. Particulars: 10 g of a 0.05% dispersion in honey. From the text:
A watch glass containing 10 g of a 0.05% dispersion of compound A in honey is placed 20 cm from the entrance to an active anthill. The ants are of the species Lasius niger, for which the fraction of workers whose function is to collect food is in the region of 10% of the total population. The total population is estimated by a count carried out on an untreated anthill, referred to as the control, containing 10,000 individuals.
During the first 2 days, it is observed that the ants head in a column from the anthill to the watch glass, stop to take up the dispersion and then return to the anthill.
An update on the latter is then obtained by excavation.

For test [1], the system named is Blatella Germanica cockroaches. Briefly: Bait pellet test on cockroaches in boxes, with later introduction of healthy cockroaches. Conditions: 2.7 g bait pellet with 1.35 mg active, bait removed after 8 hours and 15 new healthy cockroaches added. It is filed as in vivo. The protocol: Tests are carried out on Blatella Germanica cockroaches in boxes 36×24×14 cm in size. These boxes comprise a source of water, a shelter consisting of piled pieces of cardboard, and additional food consisting of biscuit pieces.
15 cockroaches are introduced into the box without bait.
After 24 hours, a 2.7 g pellet of bait with 1.35 mg of product of formula (I) is introduced into the box.
After a further 8 hours, the bait and the additional food are removed and 15 new healthy cockroaches are introduced.

As for `N#Cc1nn(-c2c(Cl)cc(C(F)(F)F)cc2Cl)c(N)c1[S+]([O-])C(F)(F)F` (centres unmarked) [compound A, 5-amino-3-cyano-I-[2,6-dichloro4-(trifluoromethyl)phenyl]-4[(trifluoromethyl)sulfinyl]-IH-pyrazole], the destruction rate entry in the test with Lasius niger (20 cm from anthill entrance, excavation after 15 days, total population about 10,000 individuals) is recorded as “greater than 99%”. For the same compound, in the test on Lasius niger (after 15 days), the “surface activity around the anthill” value is “no further surface activity”. Besides, the “destruction of larvae in the anthill” value with Lasius niger (excavation after 15 days) is “all the larvae have been destroyed”. The cockroaches dead in test [1] (64 hours after introduction of the bait) turned out to be 98.6%; in test [1] (after 88 hours), 100%.
